Results from ChEMBL document CHEMBL3124816, “Preparation and optimization of new 4-(2-(indolin-1-yl)-2-oxoethyl)-2-morpholinothiazole-5-carboxylic acid and amide derivatives as potent and selective PI3Kβ inhibitors” (Bioorg Med Chem Lett, 2014).
≈ marks a conversion by molar mass, not a printed value. Calls of active or inactive are those of the source. The calls are words filed in the database; no cut-off is given here.

Legend:
[1] = biological target: Phosphatidylinositol 4,5-bisphosphate 3-kinase catalytic subunit gamma isoform (Homo sapiens, UniProt P48736); assay: Inhibition of human PI3Kgamma after 15 mins
[2] = biological target: T1, Phosphatidylinositol 4,5-bisphosphate 3-kinase catalytic subunit beta isoform (Homo sapiens, UniProt P42338); assay: Inhibition of PI3Kbeta in human PTEN-deficient PC3 cells assessed as Akt phosphorylation at S473; assay type: cell-based, PC-3
[3] = biological target: Phosphatidylinositol 4,5-bisphosphate 3-kinase catalytic subunit alpha isoform (Homo sapiens, UniProt P42336); assay: Inhibition of human PI3Kalpha after 15 mins
[4] = biological target: T2, Phosphatidylinositol 4,5-bisphosphate 3-kinase catalytic subunit delta isoform (Homo sapiens, UniProt O00329); assay: Inhibition of human PI3Kdelta after 15 mins
T2 sequence (O00329 whole entry): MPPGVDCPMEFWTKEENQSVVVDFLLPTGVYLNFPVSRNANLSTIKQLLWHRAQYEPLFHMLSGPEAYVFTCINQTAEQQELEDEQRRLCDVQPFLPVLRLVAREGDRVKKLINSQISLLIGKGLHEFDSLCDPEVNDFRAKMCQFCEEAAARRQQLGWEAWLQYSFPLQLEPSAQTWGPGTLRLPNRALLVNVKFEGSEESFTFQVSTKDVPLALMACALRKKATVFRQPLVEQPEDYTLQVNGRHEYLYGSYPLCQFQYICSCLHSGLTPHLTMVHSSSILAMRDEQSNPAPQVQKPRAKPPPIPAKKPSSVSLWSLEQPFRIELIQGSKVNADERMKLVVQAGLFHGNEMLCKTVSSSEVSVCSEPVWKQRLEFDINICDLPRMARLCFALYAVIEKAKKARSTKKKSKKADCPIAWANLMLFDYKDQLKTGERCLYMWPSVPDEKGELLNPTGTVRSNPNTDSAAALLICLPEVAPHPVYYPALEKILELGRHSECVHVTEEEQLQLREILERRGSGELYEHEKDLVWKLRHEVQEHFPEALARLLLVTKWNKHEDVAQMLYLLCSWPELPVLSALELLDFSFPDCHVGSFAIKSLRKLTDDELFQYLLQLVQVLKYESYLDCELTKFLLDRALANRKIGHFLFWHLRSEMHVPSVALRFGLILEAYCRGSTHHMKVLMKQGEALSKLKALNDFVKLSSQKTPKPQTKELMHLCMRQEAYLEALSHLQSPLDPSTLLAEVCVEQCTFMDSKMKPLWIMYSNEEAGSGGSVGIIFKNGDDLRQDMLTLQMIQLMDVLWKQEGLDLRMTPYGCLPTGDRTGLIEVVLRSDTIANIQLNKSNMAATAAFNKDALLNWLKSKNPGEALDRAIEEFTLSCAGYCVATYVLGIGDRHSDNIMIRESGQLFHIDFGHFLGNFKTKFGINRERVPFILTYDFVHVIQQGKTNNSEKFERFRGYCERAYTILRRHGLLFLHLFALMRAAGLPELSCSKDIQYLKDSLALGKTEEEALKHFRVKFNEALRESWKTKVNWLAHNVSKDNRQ

[5] = biological target: T1, Phosphatidylinositol 4,5-bisphosphate 3-kinase catalytic subunit beta isoform; assay: Inhibition of human PI3Kbeta after 15 mins
[6] = Drug metabolism in mouse liver microsomes assessed as compound lability; assay type: ADME, Microsome; details: for metabolised: liver microsomes, read-out: Drug metabolism; for Drug metabolism: microsomes
[7] = Plasma concentration in SCID mouse harboring human PTEN-deficient PC3 cells at 100 mg/kg, po after 16 hrs; assay type: ADME, organism-based, PC-3; set-up: dose 100 mg/kg, route oral
Cytochrome P450 3A4 = Cytochrome P450 3A4 (Homo sapiens, UniProt P08684); assay: Inhibition of human recombinant CYP3A4
[8] = Plasma concentration in SCID mouse harboring human PTEN-deficient PC3 cells at 100 mg/kg, po after 7 hrs; assay type: ADME, organism-based, PC-3; set-up: dose 100 mg/kg, route oral
Mus musculus [9] = assay: Inhibition of PI3Kbeta in SCID mouse harboring human PTEN-deficient PC3 cells assessed as Akt phosphorylation at S473 at 100 mg/kg, po after 1 hr; assay type: functional, organism-based; set-up: dose 100 mg/kg; details: PC-3
[10] = (§1) Drug metabolism in human liver microsomes assessed as compound lability; assay type: ADME; details: liver microsomes, read-out: Drug metabolism
[11] = (§2) Apparent permeability of the compound in human Caco2 cells; assay type: ADME, cell-based; details: Caco-2
Mus musculus [12] = assay: Inhibition of PI3Kbeta in SCID mouse harboring human PTEN-deficient PC3 cells assessed as Akt phosphorylation at S473 at 100 mg/kg, po after 7 hrs; assay type: functional, organism-based; set-up: dose 100 mg/kg; details: PC-3
[13] = Plasma concentration in SCID mouse harboring human PTEN-deficient PC3 cells at 100 mg/kg, po after 1 hr; assay type: ADME, organism-based, PC-3; set-up: dose 100 mg/kg, route oral
Mus musculus [14] = assay: Inhibition of PI3Kbeta in SCID mouse harboring human PTEN-deficient PC3 cells assessed as Akt phosphorylation at S473 at 100 mg/kg, po after 16 hrs; assay type: functional, organism-based; set-up: dose 100 mg/kg; details: PC-3
[15] = Thermodynamic solubility of the compound in 50 mM Phosphate buffer at pH 7.4 after 16 hrs by HPLC analysis; assay type: physicochemical; details: phosphate buffer, pH 7.4; read-out: Therm_solubility
[16] = Efflux ratio of permeability from basolateral to apical side over apical to basolateral side in human Caco2 cells; assay type: ADME, cell-based; details: Caco-2
Caco-2 = assay: as §2; assay type: ADME, cell-based
Mus musculus [17] = assay: Inhibition of PI3Kbeta in SCID mouse harboring human PTEN-deficient PC3 cells assessed as Akt phosphorylation at S473 at 150 mg/kg, po after 7 hrs; assay type: functional, organism-based; set-up: dose 150 mg/kg; details: PC-3
Mus musculus [18] = assay: Inhibition of PI3Kbeta in SCID mouse harboring human PTEN-deficient PC3 cells assessed as Akt phosphorylation at S473 at 150 mg/kg, po after 16 hrs; assay type: functional, organism-based; set-up: dose 150 mg/kg; details: PC-3
Mus musculus [19] = assay: Inhibition of PI3Kbeta in SCID mouse harboring human PTEN-deficient PC3 cells assessed as Akt phosphorylation at S473 at 150 mg/kg, po after 1 hr; assay type: functional, organism-based; set-up: dose 150 mg/kg; details: PC-3
Liver microsome = assay: as §1; assay type: ADME; details: microsomes

Chain of Phosphatidylinositol 4,5-bisphosphate 3-kinase catalytic subunit gamma isoform (P48736 whole entry, canonical isoform): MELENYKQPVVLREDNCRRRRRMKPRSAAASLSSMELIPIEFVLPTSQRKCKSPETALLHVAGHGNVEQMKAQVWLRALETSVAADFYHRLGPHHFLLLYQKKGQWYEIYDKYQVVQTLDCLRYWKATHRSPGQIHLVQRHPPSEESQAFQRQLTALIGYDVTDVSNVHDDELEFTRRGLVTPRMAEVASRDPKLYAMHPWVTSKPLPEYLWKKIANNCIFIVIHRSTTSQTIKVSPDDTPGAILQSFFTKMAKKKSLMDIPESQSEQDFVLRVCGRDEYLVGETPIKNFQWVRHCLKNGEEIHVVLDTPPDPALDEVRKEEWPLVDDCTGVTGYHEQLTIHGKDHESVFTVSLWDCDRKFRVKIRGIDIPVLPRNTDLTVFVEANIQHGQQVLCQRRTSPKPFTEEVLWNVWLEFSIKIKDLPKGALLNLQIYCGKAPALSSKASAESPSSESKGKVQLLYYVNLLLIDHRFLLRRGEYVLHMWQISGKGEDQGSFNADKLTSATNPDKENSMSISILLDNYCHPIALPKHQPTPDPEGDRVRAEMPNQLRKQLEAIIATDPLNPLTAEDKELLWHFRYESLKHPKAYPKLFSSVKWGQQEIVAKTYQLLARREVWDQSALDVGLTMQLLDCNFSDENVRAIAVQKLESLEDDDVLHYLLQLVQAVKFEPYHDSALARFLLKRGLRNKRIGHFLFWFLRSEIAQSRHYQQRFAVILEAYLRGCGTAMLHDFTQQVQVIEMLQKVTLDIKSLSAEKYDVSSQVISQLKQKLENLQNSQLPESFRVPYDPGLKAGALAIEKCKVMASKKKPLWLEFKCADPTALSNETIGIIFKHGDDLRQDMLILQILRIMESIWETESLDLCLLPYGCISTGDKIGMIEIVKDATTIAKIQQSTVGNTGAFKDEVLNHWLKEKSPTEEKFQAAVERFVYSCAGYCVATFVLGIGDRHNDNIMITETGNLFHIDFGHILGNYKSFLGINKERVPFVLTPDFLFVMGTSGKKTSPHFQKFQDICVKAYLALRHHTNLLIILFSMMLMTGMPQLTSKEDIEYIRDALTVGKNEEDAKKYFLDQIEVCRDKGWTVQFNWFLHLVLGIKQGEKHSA
Chain of Cytochrome P450 3A4 (P08684 whole entry): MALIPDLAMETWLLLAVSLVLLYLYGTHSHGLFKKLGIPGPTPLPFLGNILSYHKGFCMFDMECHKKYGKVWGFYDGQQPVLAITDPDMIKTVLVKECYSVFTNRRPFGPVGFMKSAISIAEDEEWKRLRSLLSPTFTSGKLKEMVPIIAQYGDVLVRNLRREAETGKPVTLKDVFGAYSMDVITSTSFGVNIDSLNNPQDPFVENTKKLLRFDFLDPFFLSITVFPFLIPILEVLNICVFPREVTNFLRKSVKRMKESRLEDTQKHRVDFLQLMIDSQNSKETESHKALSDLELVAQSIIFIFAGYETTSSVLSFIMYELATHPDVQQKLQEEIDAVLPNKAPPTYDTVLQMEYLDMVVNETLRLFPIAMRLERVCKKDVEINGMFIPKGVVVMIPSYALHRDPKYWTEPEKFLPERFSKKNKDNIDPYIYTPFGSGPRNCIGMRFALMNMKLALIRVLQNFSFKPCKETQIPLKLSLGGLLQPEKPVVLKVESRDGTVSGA
Chain of Phosphatidylinositol 4,5-bisphosphate 3-kinase catalytic subunit alpha isoform (P42336 whole entry, canonical isoform): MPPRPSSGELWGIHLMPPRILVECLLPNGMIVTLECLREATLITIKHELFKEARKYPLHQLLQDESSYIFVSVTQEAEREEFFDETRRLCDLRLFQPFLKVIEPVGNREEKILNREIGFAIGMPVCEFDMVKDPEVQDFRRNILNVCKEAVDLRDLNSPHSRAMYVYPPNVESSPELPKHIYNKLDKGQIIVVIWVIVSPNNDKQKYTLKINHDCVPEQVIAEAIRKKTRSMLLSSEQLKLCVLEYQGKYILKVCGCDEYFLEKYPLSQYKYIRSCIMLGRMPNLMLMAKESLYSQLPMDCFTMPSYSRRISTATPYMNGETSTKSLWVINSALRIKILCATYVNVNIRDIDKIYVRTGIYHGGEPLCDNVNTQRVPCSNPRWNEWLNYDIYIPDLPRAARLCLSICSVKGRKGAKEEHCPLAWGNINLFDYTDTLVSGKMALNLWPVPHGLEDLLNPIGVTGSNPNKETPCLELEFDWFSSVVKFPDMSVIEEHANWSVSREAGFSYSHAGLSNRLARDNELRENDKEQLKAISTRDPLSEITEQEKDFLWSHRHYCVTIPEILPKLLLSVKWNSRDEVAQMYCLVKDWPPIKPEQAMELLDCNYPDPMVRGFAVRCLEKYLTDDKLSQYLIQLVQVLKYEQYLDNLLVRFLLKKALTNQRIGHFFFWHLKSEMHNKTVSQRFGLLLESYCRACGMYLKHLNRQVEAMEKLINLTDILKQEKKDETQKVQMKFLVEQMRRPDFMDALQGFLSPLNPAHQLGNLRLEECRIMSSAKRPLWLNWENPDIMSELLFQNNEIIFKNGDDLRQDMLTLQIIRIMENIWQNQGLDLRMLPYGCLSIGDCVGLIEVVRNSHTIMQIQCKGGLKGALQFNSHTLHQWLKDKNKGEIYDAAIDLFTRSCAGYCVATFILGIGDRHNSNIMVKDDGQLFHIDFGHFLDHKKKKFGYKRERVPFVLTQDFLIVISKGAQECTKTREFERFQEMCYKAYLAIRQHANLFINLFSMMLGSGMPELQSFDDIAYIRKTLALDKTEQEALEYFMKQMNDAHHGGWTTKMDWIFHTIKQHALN
T1 sequence (P42338 whole entry, canonical isoform): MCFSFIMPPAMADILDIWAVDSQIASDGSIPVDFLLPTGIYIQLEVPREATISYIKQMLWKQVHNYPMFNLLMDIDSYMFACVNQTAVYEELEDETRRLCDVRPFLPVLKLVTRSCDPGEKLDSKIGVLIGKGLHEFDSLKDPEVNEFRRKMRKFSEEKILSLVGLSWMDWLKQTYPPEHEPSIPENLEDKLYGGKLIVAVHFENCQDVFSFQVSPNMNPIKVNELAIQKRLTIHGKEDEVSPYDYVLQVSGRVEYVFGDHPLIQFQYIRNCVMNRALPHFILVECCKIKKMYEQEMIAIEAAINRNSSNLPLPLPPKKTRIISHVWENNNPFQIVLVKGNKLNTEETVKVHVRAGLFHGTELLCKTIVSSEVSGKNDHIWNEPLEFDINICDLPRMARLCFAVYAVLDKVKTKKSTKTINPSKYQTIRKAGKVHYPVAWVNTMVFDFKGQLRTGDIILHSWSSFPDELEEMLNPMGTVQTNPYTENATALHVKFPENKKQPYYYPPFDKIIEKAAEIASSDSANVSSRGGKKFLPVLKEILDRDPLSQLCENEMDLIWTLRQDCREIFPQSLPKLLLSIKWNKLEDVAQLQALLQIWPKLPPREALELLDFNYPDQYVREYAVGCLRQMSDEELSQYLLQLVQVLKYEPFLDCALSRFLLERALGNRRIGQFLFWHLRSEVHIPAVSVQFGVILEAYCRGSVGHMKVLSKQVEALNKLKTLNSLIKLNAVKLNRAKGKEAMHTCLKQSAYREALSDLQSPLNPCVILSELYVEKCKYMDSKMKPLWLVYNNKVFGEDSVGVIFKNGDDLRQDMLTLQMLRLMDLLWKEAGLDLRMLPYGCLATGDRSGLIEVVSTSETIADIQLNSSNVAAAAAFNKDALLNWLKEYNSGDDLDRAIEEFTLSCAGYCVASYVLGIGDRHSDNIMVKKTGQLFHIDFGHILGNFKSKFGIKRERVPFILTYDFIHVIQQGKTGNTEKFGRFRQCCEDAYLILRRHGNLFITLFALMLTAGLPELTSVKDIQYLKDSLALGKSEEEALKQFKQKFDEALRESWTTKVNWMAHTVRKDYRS

Row | Compound | IC50 [1] [nM] | IC50 [2] [nM] | IC50 [3] [nM] | IC50 [4] [nM] | IC50 [5] [nM] | metabolised [6] [%] | IC50 (Cytochrome P450 3A4) [nM] | metabolised [10] [%] | Papp [11] [×10⁻⁶ cm/s] | solubility thermodynamic at 16 h [15] [µM] | also measured
1 | CC1Cc2ccccc2N1C(=O)Cc1nc(N2CCOCC2)sc1C(N)=O (racemic) | > 10000 | 40 | > 10000 | 435 | 178 |  |  |  |  |  | 
2 | O=C(O)c1sc(N2CCOCC2)nc1CC(=O)N1CCc2cc(Br)ccc21 | > 10000 | 3000 | > 10000 | 1000 | 308 |  |  |  |  |  | 
3 | NC(=O)c1sc(N2CCOCC2)nc1CC(=O)Nc1ccc(F)c(Cl)c1 | > 10000 |  | 8280 | 227 | 45 |  |  |  |  |  | 
4 | NC(=O)c1sc(N2CCOCC2)nc1CC(=O)N1CCc2cc(F)ccc21 | > 10000 | 15 | 6970 | 134 | 22 | 22 | 40000 | 17 | 22.2 | 7 (≈ 2.73 µg/mL) | concentration at 16 h [7]: 4 nM; concentration at 7 h [8]: 40 nM; inhibition (Mus musculus [9]): Active; inhibition (Mus musculus [12]): Active; concentration at 1 h [13]: 310 nM; inhibition (Mus musculus [14]): Active
5 | O=C(O)c1sc(N2CCOCC2)nc1CC(=O)N1CCc2cc(F)ccc21 | > 10000 | 1730 | > 10000 | 64 | 25 | 1 | 40000 | 1 | 0.4 | 5110 (≈ 2000 µg/mL) | efflux ratio [16]: 13
6 | CC1Cc2cc(F)ccc2N1C(=O)Cc1nc(N2CCOCC2)sc1C(=O)O (centres undefined) | > 10000 | 817 | > 10000 | 219 | 15 | 3 | 40000 | 3 | 0.9 | 4930 (≈ 2000 µg/mL) | 
7 | O=C(O)c1sc(N2CCOCC2)nc1CC(=O)N1CCc2ccccc21 | > 10000 | 1420 | > 10000 | 1550 | 270 |  |  |  |  |  | 
8 | CC1Cc2c(Br)cccc2N1C(=O)Cc1nc(N2CCOCC2)sc1C(=O)O (single isomer, unassigned; enantiomer 2) | 10000 | 307 | 3110 | 861 | 84 |  | 40000 | 0 |  | 4290 (≈ 2000 µg/mL) | Drug metabolism [6]: 7%; Papp (Caco-2): 0.4 ×10⁻⁶ cm/s
9 | NC(=O)c1sc(N2CCOCC2)nc1CC(=O)N1CCc2cc(Cl)ccc21 | > 10000 | 110 | > 10000 | 1860 | 166 |  |  |  |  |  | 
10 | CC1CN(C(=O)Cc2nc(N3CCOCC3)sc2C(N)=O)c2ccccc21 (racemic) | 4200 | 75 | > 10000 | 567 | 130 |  |  |  |  |  | 
11 | O=C(O)c1sc(N2CCOCC2)nc1CC(=O)N1CCc2c(Br)cccc21 | > 10000 | 1780 | 1120 | 133 | 11 | 0 | 40000 | 8 | 0.2 |  | 
12 | O=C(O)c1sc(N2CCOCC2)nc1CC(=O)N1CCc2c(Cl)cccc21 | > 10000 | 2000 | 2210 | 245 | 23 | 9 | 40000 | 1 | 0.7 | 1480 (≈ 602 µg/mL) | 
13 | CC1Cc2c(Cl)cccc2N1C(=O)Cc1nc(N2CCOCC2)sc1C(N)=O (centres undefined) | > 10000 | 13 | > 10000 | 58 | 10 | 70 |  | 77 | 29.6 | 2 (≈ 0.842 µg/mL) | 
14 | NC(=O)c1sc(N2CCOCC2)nc1CC(=O)N1CCc2c(Br)cccc21 | 8130 | 22 | 2150 | 178 | 11 | 63 | 40000 | 57 | 24.7 | 2 (≈ 0.903 µg/mL) | 
15 | CC1Cc2ccccc2N1C(=O)Cc1nc(N2CCOCC2)sc1C(=O)O (racemic) | > 10000 | 2310 | > 10000 | 2720 | 340 |  |  |  |  |  | 
16 | NC(=O)c1sc(N2CCOCC2)nc1CC(=O)N1CCc2cc(Br)ccc21 | > 10000 | 420 | > 10000 | 483 | 240 |  |  |  |  |  | 
17 | NC(=O)c1sc(N2CCOCC2)nc1CC(=O)N1CCc2c(F)cccc21 | > 10000 | 38 | 7230 | 485 | 138 |  |  |  |  |  | 
18 | CC1Cc2cc(F)ccc2N1C(=O)Cc1nc(N2CCOCC2)sc1C(N)=O (centres undefined) | > 10000 | 14 | > 10000 | 127 | 20 | 48 | 40 | 42 | 19.3 | 45 (≈ 18.2 µg/mL) | 
19 | NC(=O)c1sc(N2CCOCC2)nc1CC(=O)N1CCc2c(Cl)cccc21 | > 10000 | 122 | 6330 | 277 | 49 | 61 | 40000 | 40 |  | 2 (≈ 0.814 µg/mL) | 
20 | CC1Cc2c(Br)cccc2N1C(=O)Cc1nc(N2CCOCC2)sc1C(=O)O (single isomer, unassigned; enantiomer 1) |  |  |  |  |  |  |  |  |  |  | inhibition (Mus musculus [17]): Active; inhibition (Mus musculus [18]): Active; inhibition (Mus musculus [19]): Active
21 | CC1Cc2c(Br)cccc2N1C(=O)Cc1nc(N2CCOCC2)sc1C(N)=O (single isomer, unassigned; (-)) | 3260 | 3 | 1320 | 92 | 13 |  | 25000 | 85 | 20.9 |  | Drug metabolism [6]: 89%
22 | NC(=O)c1sc(N2CCOCC2)nc1CC(=O)N1CCc2ccccc21 | > 10000 | 25 | 4080 | 230 | 71 | 44 | 40000 | 35 | 16 | 3 (≈ 1.12 µg/mL) | 
23 | CC1Cc2c(Cl)cccc2N1C(=O)Cc1nc(N2CCOCC2)sc1C(=O)O (centres undefined) | > 10000 | 876 | > 10000 | 149 | 8 | 17 | 40000 | 8 | 0.9 | 4740 (≈ 2000 µg/mL) | 
24 | CC1Cc2c(Br)cccc2N1C(=O)Cc1nc(N2CCOCC2)sc1C(N)=O (single isomer, unassigned; enantiomer 2) | > 10000 | 17 | 1320 | 430 | 58 |  | 40000 |  |  |  | Drug metabolism [6]: 67%; Drug metabolism (Liver microsome): 75%; Papp (Caco-2): 20.7 ×10⁻⁶ cm/s
